Earlier results, collected in patent publication US6348220B1, “Phenethylisothiocyanate nutraceutical compositions and methods” (Rutgers, the State University of New Jersey, priority 1999, dated 2002).

System: oxidation of nitrosamines from tobacco
Conditions: human smokers, PEITC from fresh watercress, urinary metabolites (Hecht et al., 1995)

S=C=NCCc1ccccc1 [PEITC, phenethyl isothiocyanate]
effect on oxidation of nitrosamines from tobacco: specifically inhibit the oxidation of nitrosamines from tobacco
